Source: ChEMBL document CHEMBL1250507, “Novel indolylmaleimide acts as GSK-3beta inhibitor in human neural progenitor cells” (Bioorg Med Chem, 2010)
Activity calls are given as the source filed them. No cut-off for these calls is given here.

Tests used:
[1] = biological target: T1, Glycogen synthase kinase-3 beta (Homo sapiens, UniProt P49841); conditions: ReNcell VM, at 3 µM
Target sequence in this assay (P49841 whole entry, looked up): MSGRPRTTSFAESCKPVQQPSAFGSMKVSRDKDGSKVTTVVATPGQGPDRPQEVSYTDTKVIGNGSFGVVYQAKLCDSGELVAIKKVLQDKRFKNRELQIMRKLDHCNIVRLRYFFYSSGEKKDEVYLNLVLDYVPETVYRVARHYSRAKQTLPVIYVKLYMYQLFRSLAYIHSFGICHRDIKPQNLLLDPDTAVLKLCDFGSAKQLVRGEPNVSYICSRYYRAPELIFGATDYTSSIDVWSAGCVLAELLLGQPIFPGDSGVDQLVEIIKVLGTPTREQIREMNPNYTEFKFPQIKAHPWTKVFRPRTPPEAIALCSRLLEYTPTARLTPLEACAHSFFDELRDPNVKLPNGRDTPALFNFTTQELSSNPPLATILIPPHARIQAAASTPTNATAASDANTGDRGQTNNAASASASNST

[2] = biological target: T1, Glycogen synthase kinase-3 beta; assay: Inhibition of GSK-3-beta-mediated Wnt signaling in human ReNcell VM cells assessed as increase in accumulation of beta-catenin at 1 uM after 2 hrs by ELISA relative to control
Target sequence in this assay (P49841 whole entry, looked up): as above

[3] = Induction of neuronal differentiation in human ReNcell VM cells assessed as beta3-tubulin positive cells after 3 days by FACS analysis relative to control; type: functional
[4] = Antiproliferative activity against human ReNcell VM cells assessed as growth doubling time at 3 uM measured every 24 hrs; type: functional
[5] = biological target: T1, Glycogen synthase kinase-3 beta; assay: Inhibition of GSK3-beta after 30 mins by luminescence assay
Target sequence in this assay (P49841 whole entry): as the sequence (P49841 whole entry, looked up) above

[6] = biological target: T1, Glycogen synthase kinase-3 beta; conditions: ReNcell VM, 3 uM
Target sequence in this assay (P49841 whole entry, looked up): as above
Description: Inhibition of GSK3-beta in human ReNcell VM cells assessed as residual activity at 3 uM after 2 hrs by immunoprecipitation analysis relative to control

[7] = biological target: T1, Glycogen synthase kinase-3 beta; conditions: ReNcell VM, 3 uM; remark: listed apart in the source
Target sequence in this assay (P49841 whole entry, looked up): as above

ReNcell VM [8] = assay: Antiproliferative activity against human ReNcell VM cells assessed as reduction of cell proliferation at 3 uM after 72 hrs; type: functional, cell-based
ReNcell VM [9] = assay: Cytotoxicity against human ReNcell VM cells assessed as cell viability at 3 uM after 72 hrs; type: functional, cell-based
[10] = biological target: T1, Glycogen synthase kinase-3 beta; conditions: ReNcell VM, 3 uM; remark: listed apart in the source
Target sequence in this assay (P49841 whole entry, looked up): as above

| Compound | inhibition [1] | further results |
| --- | --- | --- |
| CCCCNC1=C(c2c(C)[nH]c3ccccc23)C(=O)N(CCCC)C1=O | inactive |  |
| CCCCNC(=O)C1=C(c2c(C)[nH]c3ccccc23)C(=O)N(CCCC)C1=O | inactive |  |
| Cc1[nH]c2ccccc2c1C1=C(C(=O)N2CCCCC2)C(=O)N(C)C1=O | inactive |  |
| Cc1[nH]c2ccccc2c1C1=C(C(=O)N2CCOCC2)C(=O)N(C)C1=O | inactive |  |
| Cc1[nH]c2ccccc2c1C1=C(N2CCN(c3ccccc3)CC2)C(=O)N(C)C1=O | inactive |  |
| Cc1[nH]c2ccccc2c1C1=C(NCCc2ccc(Cl)cc2)C(=O)N(C)C1=O | inactive |  |
| COc1ccc2[nH]cc(C3=C(NCCc4ccc(F)cc4)C(=O)N(C)C3=O)c2c1 | inactive |  |
| CN1C(=O)C(NCCc2ccc(F)cc2)=C(c2c[nH]c3ccccc23)C1=O | inactive |  |
| COc1ccc(CCNC2=C(c3c(C)[nH]c4ccccc34)C(=O)N(C)C2=O)cc1 | inactive |  |
| Cc1[nH]c2ccccc2c1C1=C(N2CCOCC2)C(=O)N(C)C1=O | inactive |  |
| Cc1[nH]c2ccccc2c1C1=C(C(=O)N2CCN(c3ccccc3)CC2)C(=O)N(C)C1=O | inactive |  |
| Cc1[nH]c2ccccc2c1C1=C(NCCc2c[nH]c3ccccc23)C(=O)N(C)C1=O | inactive |  |
| CCCCNC1=C(c2c(C)[nH]c3ccccc23)C(=O)N(C)C1=O | inactive |  |
| O=C1Cc2c([nH]c3ccc(Br)cc23)-c2ccccc2N1 |  | inhibition [2]: 30% |
| Cc1[nH]c2ccccc2c1C1=C(N2CCCCC2)C(=O)N(C)C1=O | inactive |  |
| Cc1[nH]c2ccccc2c1C1=C(NCCc2ccc(F)cc2)C(=O)N(C)C1=O | 27% | Activity [3]: 3.7%; Time [4]: 26.5 h; IC50 [5]: 53 nM; residual activity [6]: 27%; inhibition [7]: Active; Activity (ReNcell VM [8]): Active |
| Cc1[nH]c2ccccc2c1C1=C(NCCc2ccccc2)C(=O)N(C)C1=O | inactive |  |
| CCCCOC(=O)C1=C(c2c(C)[nH]c3ccccc23)C(=O)N(C)C1=O | inactive |  |
| Cn1cc(C2=C(c3ccc(Cl)cc3Cl)C(=O)NC2=O)c2ccccc21 [SB-216763] | 50% | Activity [3]: 3.2%; Time [4]: 24.4 h; Activity (ReNcell VM [9]): Not toxic; residual activity [6]: 22%; inhibition [7]: inactive; Activity (ReNcell VM [8]): Active; inhibition [10]: 55% |
| CCCCNC(=O)C1=C(c2c(C)[nH]c3ccccc23)C(=O)N(C)C1=O | inactive |  |
| Cc1[nH]c2ccccc2c1C1=C(NCCc2ccc(O)cc2)C(=O)N(C)C1=O | inactive |  |
| CCOC(=O)C1=C(c2c(C)[nH]c3ccccc23)C(=O)N(C)C1=O | inactive |  |
| Cc1[nH]c2ccccc2c1C1=C(NCCc2ccc(F)c(F)c2)C(=O)N(C)C1=O | inactive |  |
| CN1C(=O)C(NCCc2ccc(F)cc2)=C(c2c[nH]c3ccc(F)cc23)C1=O | inactive |  |
